We go through 8 compounds from paper PMC11677752 (Pharmaceutics, 2024).

One data set has as its system NAT. Particulars: cited from earlier work; for Inhibition of 5-ASA Ac-CoA-dependent metabolism: alternative NAT substrates.
Data set [1] in a line: Regional luminal fluid pH in rats. The data set is classed as in vivo. Particulars: lansoprazole 5 mg/mL/kg i.p. 1 h before oral 5-ASA solution in 5% NaHCO3; 3 h after 5-ASA; untreated control rats […] ± 0.60, p = 0.07.
Another data set relates to MRP2. The settings on record: cited from earlier work.
For data set [2] the following is noted: three animal species (rats, rabbits, and pigs); cited from earlier work.
The subject of data set [3] is peptide transporter 1 (PEPT1). Further details: method as in PMID 28867741. The settings on record: cited from earlier work.
Details of data set [4]: method as in PMID 3557190. Particulars: healthy volunteers, intravenous dose 0.50 g, oral dose 2.42 g; cited from earlier work.
The nature of data set [5]: 5-ASA membrane distribution study in rats (GI membrane concentrations). Particulars: fed rats, oral 30 mg/2.2 mL/kg. How it is done:
The animal study was performed according to the Care and Use of Laboratory Animals of the Committee for Animal Experiments of Fukuyama University (2023-A-10). Male Sprague Dawley rats were purchased from Japan SLC, Inc. (Hamamatsu, Japan). After feeding for several days, the rats that weighed 200 to 300 g were used for the membrane distribution studies. […] Separately, the fed rats were treated with lansoprazole, which was dissolved with a small amount of dimethyl sulfoxide (DMSO) and then diluted with physiological saline to make a lansoprazole solution (5 mg/mL); this solution was injected intraperitoneally at a 5 mg/mL/kg dose. […] One milliliter of water was poured into each isolated segment’s lumen and the luminal fluid pH was measured using a compact pH meter (HORIBA, LAQUA twin®, Kyoto, Japan). The intestinal tract was opened and cleaned with ice-cold 0.9% NaCl solution, frozen in liquid nitrogen, and stored at −80 °C until analysis.
An L-column 2 ODS (150 mm × 4.6 mm, particle size 5 µm, CERI Co., Ltd., Saitama, Japan) was used, and the mobile phase was a mixture of 0.1 M acetic acid, acetonitrile, and triethylamine (920:100:2, v/v/v). The mobile phase flow rate was 1 mL/min. […] The HPLC system (Shimadzu, Kyoto, Japan) comprised a model LC20AD pump, a 20 µL fixed injection loop, and a fluorescence spectrophotometer (Shimadzu, RF10AXL). […]

Turning to `Nc1ccc(C(=O)N[C@@H](CCC(=O)O)C(=O)O)cc1` [p-aminobenzoylglutamate], in the data set with NAT, the “Inhibition of 5-ASA Ac-CoA-dependent metabolism” value is listed as “inhibited”.

For `Cc1c(OCC(F)(F)F)ccnc1C[S+]([O-])c1nc2ccccc2[nH]1` (centres unmarked) [lansoprazole], the “Gastric pH” value in data set [1] amounted to 4.77 ± 0.12. `NNC(=O)c1ccncc1` [isoniazid]: the “Inhibition of 5-ASA Ac-CoA-dependent metabolism” value in the data set with NAT is “inhibited”. Turning to `CN(C)C(=O)CCSC(SCCC(=O)O)c1cccc(/C=C/c2ccc3ccc(Cl)cc3n2)c1` (centres unmarked) [MK571], in the data set with MRP2 (Caco-2 cells), the “PappBA/PappAB permeability ratio of AC-5-ASA in presence of the MRP inhibitor” value is on record as about 1. On to `C[C@]12C=CC(=O)C=C1CC[C@@H]1[C@@H]2[C@@H](O)C[C@@]2(C)[C@H]1CC[C@]2(O)C(=O)CO` [prednisolone], for which the “Correlation of solubility with gastrointestinal pH” value in data set [2] is reported as “not correlated significantly”.

In the case of `Nc1ccc(O)c(C(=O)O)c1` [5-ASA, 5-Aminosalicylic acid], the “Inhibition of PEPT1-mediated uptake transport” value in data set [3] is given as “can inhibit”. Besides, the Absolute oral bioavailability in data set [4] is 15.5%. Also, in data set [5], the “Time for remaining unabsorbed 5-ASA in the small intestine to reach the distal intestine” value is at most 8 h and the “Time for some fraction of orally administered 5-ASA to reach the cecum/proximal colon” value was at most 3 h. In the data set on MRP2, the “Substrate for MRP2” value was “is not a substrate and not”. The Km (in general, the substrate concentration at which the rate is half of its maximum) with NAT (saturable, read-out: Km of Ac-CoA-dependent metabolism) is 5.8 µM.

Consider `CC(=O)Nc1ccc(O)c(C(=O)O)c1` [AC-5-ASA, N-acetyl-5-ASA], for which, in the data set with MRP2 (Caco-2 cells), the PappBA/PappAB ratio is listed as 4.89. In addition, the “Substrate for MRP2” value in the data set on MRP2 is “is a substrate”. With `O=c1c(O)c(-c2ccc(O)c(O)c2)oc2cc(O)cc(O)c12` [quercetin], in the data set with MRP2 (Caco-2 cells), the “PappBA/PappAB permeability ratio of AC-5-ASA in presence of the MRP inhibitor” value is reported as about 1.
